# Results: patent US20230279025A1, “KRAS G12D INHIBITORS” (Mirati Therapeutics, Inc., priority 2020, published 2023)
# Molecular target: KRas G12D (Homo sapiens (Human), UniProt P01116, G12D)
# Assay: KRas G12D Binding Assay (TR-FRET displacement of Cy5 labelled tracer)
# Conditions: GDP-loaded KRAS G12D (amino acids 1:169), 60 minute incubation at 22° C.
# Method: After a 60 minute incubation at 22° C., the reaction was measured using a PerkinElmer EnVision multimode plate reader via TR-FRET dual wavelength detection, and the percent of control (POC) calculated using a ratiometric emission factor. […] The POC values were fit to a 4-parameter logistic curve and the IC50 value was determined as the concentration where the curve crosses 50 POC.
# ND stands for “not determined.”
# KRas G12D, sequence (P01116 other isoform, or with tags, fused parts or gaps G12D): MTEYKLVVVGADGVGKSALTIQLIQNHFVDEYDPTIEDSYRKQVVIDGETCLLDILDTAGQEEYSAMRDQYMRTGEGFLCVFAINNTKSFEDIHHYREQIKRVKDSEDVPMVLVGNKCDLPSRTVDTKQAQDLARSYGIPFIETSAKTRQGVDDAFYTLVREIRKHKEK
row,Structure (SMILES),IC50
1,"Fc1ccc2cccc(-c3ncc4c(N5CC6CCC(C5)N6)nc(OC[C@@]56CCCN5C[C@H](F)C6)nc4c3F)c2c1Cl (racemic) [Example 336, 4-((1R,5S)-3,8-diazabicyclo[3.2.1]octan-3-yl)-7-(8-chloro-7-fluoronaphthalen-1-yl)-8-fluoro-2-((2-fluorotetrahydro-1H-pyrrolizin-7a(5H)-yl)methoxy)pyrido[4,3-d]pyrimidine (racemic, trans)]",3.1 nM
2,"Oc1cc(-c2ncc3c(N4C[C@H]5CC[C@@H](C4)N5)nc(OCC45CCCN4C(CF)CC5)nc3c2F)c2c(Cl)cccc2c1 (stereo partly drawn) [Example 400, 4-(4-((1R,5S)-3,8-diazabicyclo[3.2.1]octan-3-yl)-8-fluoro-2-((3-(fluoromethyl)tetrahydro-1H-pyrrolizin-7a(5H)-yl)methoxy)pyrido[4,3-d]pyrimidin-7-yl)-5-chloronaphthalen-2-ol]",4.2 nM
3,"Fc1c(-c2ccccc2Cl)ncc2c(N3C[C@H]4CC[C@@H](C3)N4)nc(OCC34CCCN3CCC4)nc12 [Example 310, 4-((1R,5S)-3,8-diazabicyclo[3.2.1]octan-3-yl)-7-(2-chlorophenyl)-8-fluoro-2-((hexahydro-1H-pyrrolizin-7a-yl)methoxy)pyrido[4,3-d]pyrimidine]",559 nM
4,"Oc1cccc(OC(F)(F)F)c1-c1ncc2c(N3CC4CCC(C3)N4)nc(OC[C@@]34CCCN3C[C@H](F)C4)nc2c1F [Example 392, 2-(4-((1R,5S)-3,8-diazabicyclo[3.2.1]octan-3-yl)-8-fluoro-2-((2-fluorotetrahydro-1-H-pyrrolizin-7a(5H)-yl)methoxy)pyrido[4,3-d]pyrimidin-7-yl)-3-(trifluoromethoxy)phenol]",208 nM
5,"Cn1cnc2ccc(Oc3nc(N4C[C@H]5CC[C@@H](C4)N5)c4cnc(-c5cccc6cccc(Cl)c56)c(F)c4n3)cc21 [Example 148, 4-((1R,5S)-3,8-diazabicyclo[3.2.1]octan-3-yl)-7-(8-chloronaphthalen-1-yl)-8-fluoro-2-((1-methyl-1H-benzo[d]imidazol-6-yl)oxy)pyrido[4,3-d]pyrimidine]",5180 nM
6,"COc1c(C)cccc1-c1ncc2c(N3C[C@H]4CC[C@@H](C3)N4)nc(OCC34CCCN3CCC4)nc2c1F [Example 313, 4-((1R,5S)-3,8-diazabicyclo[3.2.1]octan-3-yl)-8-fluoro-2-((hexahydro-1H-pyrrolizin-7a-yl)methoxy)-7-(2-methoxy-3-methylphenyl)pyrido[4,3-d]pyrimidine]",231 nM
7,"C#Cc1c(F)ccc2cc(O)cc(-c3ncc4c(N5C[C@H]6CC[C@@H](C5)N6)nc(OCC56CCCN5CCC6)nc4c3F)c12 [Example 232, 4-(4-((1R,5S)-3,8-diazabicyclo[3.2.1]octan-3-yl)-8-fluoro-2-((tetrahydro-1H-pyrrolizin-7a(5H)-yl)methoxy)pyrido[4,3-d]pyrimidin-7-yl)-5-ethynyl-6-fluoronaphthalen-2-ol]",0.6 nM
8,"O=C(CCl)N1CCC(Oc2nc(N3C[C@H]4CC[C@@H](C3)N4)c3cnc(-c4cccc5cccc(Cl)c45)c(F)c3n2)CC1 [Example 163, 1-(4-((4-((1R,5S)-3,8-diazabicyclo[3.2.1]octan-3-yl)-7-(8-chloronaphthalen-1-yl)-8-fluoropyrido[4,3-d]pyrimidin-2-yl)oxy)piperidin-1-yl)-2-chloroethan-1-one bis(2,2,2-trifluoroacetate)]",5550 nM
9,"Cc1ccc(O)cc1-c1ncc2c(N3C[C@H]4CC[C@@H](C3)N4)nc(OCC34CCCN3CCC4)nc2c1F [Example 256, 3-(4-((1R,5S)-3,8-diazabicyclo[3.2.1]octan-3-yl)-8-fluoro-2-((hexahydro-1H-pyrrolizin-7a-yl)methoxy)pyrido[4,3-d]pyrimidin-7-yl)-4-methylphenol]",13.2 nM
10,"Oc1ccccc1-c1ncc2c(N3C[C@H]4CC[C@@H](C3)N4)nc(OCC34CCCN3CCC4)nc2c1F [Example 267, 2-(4-((1R,5S)-3,8-diazabicyclo[3.2.1]octan-3-yl)-8-fluoro-2-((hexahydro-1H-pyrrolizin-7a-yl)methoxy)pyrido[4,3-d]pyrimidin-7-yl)phenol]",3260 nM
11,"Fc1ccc2cccc(-c3ncc4c(N5C[C@H]6CC[C@@H](C5)N6)nc(OCC56CCCN5CCC6)nc4c3F)c2c1F [Example 464, 4-((1R,5S)-3,8-diazabicyclo[3.2.1]octan-3-yl)-7-(7,8-difluoronaphthalen-1-yl)-8-fluoro-2-((hexahydro-1H-pyrrolizin-7a-yl)methoxy)pyrido[4,3-d]pyrimidine]",0.007 nM
12,"Cc1cccc(O)c1-c1ncc2c(N3CC4CCC(C3)N4)nc(OC[C@@]34CCCN3C[C@H](F)C4)nc2c1F (racemic) [Example 377, 2-(4-((1R,5S)-3,8-diazabicyclo[3.2.1]octan-3-yl)-8-fluoro-2-((2-fluorotetrahydro-1H-pyrrolizin-7a(5H)-yl)methoxy)pyrido[4,3-d]pyrimidin-7-yl)-3-methylphenol]",417 nM
13,"Fc1c(-c2cccc(Cl)c2C(F)(F)F)ncc2c(N3C[C@H]4CC[C@@H](C3)N4)nc(OCC34CCCN3CCC4)nc12 [Example 328, 4-((1R,5S)-3,8-diazabicyclo[3.2.1]octan-3-yl)-7-(3-chloro-2-(trifluoromethyl)phenyl)-8-fluoro-2-((tetrahydro-1H-pyrrolizin-7a(5H)-yl)methoxy)pyrido[4,3-d]pyrimidine]",9.4 nM
14,"Nc1nc2c(-c3ncc4c(N5C[C@H]6CC[C@@H](C5)N6)nc(OCC56CCCN5CCC6)nc4c3F)cccc2s1 [Example 453, 4-(4-((1R,5S)-3,8-diazabicyclo[3.2.1]octan-3-yl)-8-fluoro-2-((hexahydro-1H-pyrrolizin-7a-yl)methoxy)pyrido[4,3-d]pyrimidin-7-yl)benzo[d]thiazol-2-amine]",27 nM
15,"O[C@@H]1C[C@@H]2CN(c3nc(OCCn4ccnc4C(F)F)nc4c(F)c(-c5cccc6cccc(Cl)c56)ncc34)C[C@H]1N2 [Example 172, (1R,5R,6R)-3-(7-(8-chloronaphthalen-1-yl)-2-(2-(2-(difluoromethyl)-1H-imidazol-1-yl)ethoxy)-8-fluoropyrido[4,3-d]pyrimidin-4-yl)-3,8-diazabicyclo[3.2.1]octan-6-ol]",689 nM
16,"Nc1nc(N2CC3CCC(C2)N3)c2cnc(-c3cc(O)cc4ccccc34)c(F)c2n1 [Example 182, 4-[2-amino-4-(3,8-diazabicyclo[3.2.1]octan-3-yl)-8-fluoro-pyrido[4,3-d]pyrimidin-7-yl]naphthalen-2-ol]",269 nM
17,"CCC1(N)CN(c2nc(N3C[C@H]4CC[C@@H](C3)N4)c3cnc(-c4cccc5cccc(Cl)c45)c(F)c3n2)C1 [Example 128, 1-(4-((1R,5S)-3,8-diazabicyclo[3.2.1]octan-3-yl)-7-(8-chloronaphthalen-1-yl)-8-fluoropyrido[4,3-d]pyrimidin-2-yl)-3-ethylazetidin-3-amine]",501 nM
18,"CC(C)c1c(F)cccc1-c1ncc2c(N3C[C@H]4CC[C@@H](C3)N4)nc(OCC34CCCN3CCC4)nc2c1F [Example 299, 4-((1R,5S)-3,8-diazabicyclo[3.2.1]octan-3-yl)-8-fluoro-7-(3-fluoro-2-isopropylphenyl)-2-((hexahydro-1H-pyrrolizin-7a-yl)methoxy)pyrido[4,3-d]pyrimidine]",132 nM
19,"NCC#Cc1cccc2cccc(-c3ncc4c(N5C[C@H]6CC[C@@H](C5)N6)nc(OCC56CCCN5CCC6)nc4c3F)c12 [Example 241, 3-(8-(4-((1R,5S)-3,8-diazabicyclo[3.2.1]octan-3-yl)-8-fluoro-2-((tetrahydro-1H-pyrrolizin-7a(5H)-yl)methoxy)pyrido[4,3-d]pyrimidin-7-yl)naphthalen-1-yl)prop-2-yn-1-amine]",79.2 nM
20,"CCc1ccccc1-c1ncc2c(N3C[C@H]4CC[C@@H](C3)N4)nc(OCC34CCCN3CCC4)nc2c1F [Example 295, 4-((1R,5S)-3,8-diazabicyclo[3.2.1]octan-3-yl)-7-(2-ethylphenyl)-8-fluoro-2-((hexahydro-1H-pyrrolizin-7a-yl)methoxy)pyrido[4,3-d]pyrimidine]",192 nM
21,"Cc1cccc(-c2ncc3c(N4C[C@H]5CC[C@@H](C4)N5)nc(OCC45CCCN4CCC5)nc3c2F)c1C [Example 275, 4-((1R,5S)-3,8-diazabicyclo[3.2.1]octan-3-yl)-7-(2,3-dimethylphenyl)-8-fluoro-2-((hexahydro-1H-pyrrolizin-7a-yl)methoxy)pyrido[4,3-d]pyrimidine]",53.8 nM
22,"CN1CCC[C@H]1COc1nc(N2CC3CCC(C(N)=O)(C2)N3)c2cnc(-c3cc(O)cc4ccccc34)c(F)c2n1 (stereo partly drawn) [Example 159, 3-(8-fluoro-7-(3-hydroxynaphthalen-1-yl)-2-(((S)-1-methylpyrrolidin-2-yl)methoxy)pyrido[4,3-d]pyrimidin-4-yl)-3,8-diazabicyclo[3.2.1]octane-1-carboxamide bis(2,2,2-trifluoroacetate)]",331 nM
23,"CCc1cccc2cc(O)cc(-c3ncc4c(N5C[C@H]6CC[C@@H](C5)N6)ncnc4c3F)c12 [Example 449, 4-(4-((1R,5S)-3,8-diazabicyclo[3.2.1]octan-3-yl)-8-fluoropyrido[4,3-d]pyrimidin-7-yl)-5-ethylnaphthalen-2-ol]",71 nM
24,"C[C@H]1C[C@@H]1c1ccccc1-c1ncc2c(N3C[C@H]4CC[C@@H](C3)N4)nc(OCC34CCCN3CCC4)nc2c1F [Example 289, 4-((1R,5S)-3,8-diazabicyclo[3.2.1]octan-3-yl)-8-fluoro-2-((hexahydro-1H-pyrrolizin-7a-yl)methoxy)-7-(2-((1S,2S)-2-methylcyclopropyl)phenyl)pyrido[4,3-d]pyrimidine]",218 nM
25,"Cc1cccc(-c2ncc3c(N4C[C@H]5CC[C@@H](C4)N5)nc(OCC45CCCN4CCC5)nc3c2F)c1C(C)C [Example 301, 4-((1R,5S)-3,8-diazabicyclo[3.2.1]octan-3-yl)-8-fluoro-2-((hexahydro-1H-pyrrolizin-7a-yl)methoxy)-7-(2-isopropyl-3-methylphenyl)pyrido[4,3-d]pyrimidine]",35.1 nM
